Earlier results, collected in publication PMC3816732, “Database-Guided Discovery of Potent Peptides to Combat HIV-1 or Superbugs” (Pharmaceuticals, 2013).
Entries after “also recorded” stand apart in the source; their conditions may differ. Like-named read-outs stand apart in the source and are kept apart here. Bridges are numbered along the chain shown (N, C = ends). Where no end group is shown, it is not given here.

Assays:
[1] = tested on: HIV-1
Text: For example, proline-rich AMPs are known to interact with bacterial heat shock proteins.

[2] = tested on: Staphylococcus aureus USA300 LAC; design: method as in 2 sources, ref 52, 53 = [52]; PMID 20086159; doi:10.1128/AAC.01448-09; 52. Wang G. Watson K.M. Peterkofsky A. Buckheit R.W. Jr. Identification of novel human immunodeficiency virus type 1 inhibitory peptides based on the antimicrobial peptide database Antimicrob. Agents || [53]; PMID 22445495; doi:10.1016/j.ijantimicag.2012.02.003; 53. Menousek J. Mishra B. Hanke M.L. Heim C.E. Kielian T. Wang G. Database screening and in vivo efficacy of antimicrobial peptides against methicillin-resistant Staphylococcus aureus USA300 Int. J. A ||| ref 55 = [55]; PMID 22803960; doi:10.1021/ja305644e; 55. Mishra B. Wang G. Ab initio design of potent anti-MRSA peptides based on database filtering technology J. Am. Chem. Soc. 2012 134 12426 12429 10.1021/ja305644e 22803960 PMC3412535; details: for S. aureus USA300 (MIC, μM): S. aureus USA300 LAC (MRSA), database screening; for activity against S. aureus USA300 (MRSA), in words: database-screened peptides
Text: In fact, the annual frequency of deaths from MRSA is rapidly increasing and has surpassed those caused by HIV/AIDS. Therefore, there is a need to develop new treatments to control MRSA. To identify new compounds against MRSA USA300 LAC, we also assayed the antibacterial activity of the same 30 peptides used for screening anti-HIV-1 peptides above. […] For example, proline-rich AMPs are known to interact with bacterial heat shock proteins.

[3] = tested on: Bacillus subtilis; details: database-screened peptides
Text: [The procedure below names another organism; the source lists this organism under the same test.] (§1) The spread of MRSA from the clinical setting to the communities is worrisome. In fact, the annual frequency of deaths from MRSA is rapidly increasing and has surpassed those caused by HIV/AIDS. Therefore, there is a need to develop new treatments to control MRSA. To identify new compounds against MRSA USA300 LAC, we also assayed the antibacterial activity of the same 30 peptides used for screening anti-HIV-1 peptides above. […] We referred to this unique method as ab initio design to distinguish it from the de novo methods above. Our design comprises two major modules. The first module consists of an activity filter that allows us to obtain a list of peptides with desired activity (e.g., antibacterial, antifungal, antiviral, antiparasitic, or anticancer). To obtain compounds to kill S. aureus, we retrieved all AMPs with activity against Gram-positive bacteria as model peptides. The second module is composed of a series of parameter filters ...

[4] = tested on: Pseudomonas aeruginosa; details: database-screened peptides
Text: [The procedure below names another organism; the source lists this organism under the same test.] as §1

[5] = tested on: Escherichia coli; details: database-screened peptides
Text: as §1, with “... || As a second example, we also aimed to identify the minimal active region in a longer peptide. Human cathelicidin LL-37 is a 37-residue peptide starting with a pair of leucines. Our studies produced a library of model peptides with distinct antimicrobial activity. KR-12 is identified as the minimal antibacterial peptide corresponding to residues 18–29 of human LL-37. It is active against E. coli but not HIV-1 [56, 71]. However, FK-13, a core antimicrobial peptide with one more phenylalanine at the N-terminus than KR-12 [72], is active against both HIV-1 and E. coli.” for “...”

[6] = tested on: Staphylococcal biofilm; details: catheter embedded in mice
[7] = tested on: chymotrypsin
[8] = tested on: E. coli K12; design: method as in 5 sources, ref [9] = [9]; PMID 18957441; doi:10.1093/nar/gkn823; 9. Wang G. Li X. Wang Z. The updated antimicrobial peptide database and its application in peptide design Nucleic Acids Res. 2009 37 D933 D937 10.1093/nar/gkn823 18957441 PMC2686604 ||| ref [52] = [52]; PMID 20086159; doi:10.1128/AAC.01448-09; 52. Wang G. Watson K.M. Peterkofsky A. Buckheit R.W. Jr. Identification of novel human immunodeficiency virus type 1 inhibitory peptides based on the antimicrobial peptide database Antimicrob. Agents ||| ref [54] = [54]; doi:10.4172/2155-6113.S2-003; 54. Wang G. Buckheit K.W. Mishra B. Lushnikova T. Buckheit R.W. Jr. De Novo Design of Antiviral and Antibacterial Peptides with Varying Loop structures J. AIDS Clin. Res. 2011 S2:003 10.4172/2155-6113 ||| ref 9, 52, 54 = [9]; PMID 18957441; doi:10.1093/nar/gkn823; 9. Wang G. Li X. Wang Z. The updated antimicrobial peptide database and its application in peptide design Nucleic Acids Res. 2009 37 D933 D937 10.1093/nar/gkn823 18957441 PMC2686604 || [52]; PMID 20086159; doi:10.1128/AAC.01448-09; 52. Wang G. Watson K.M. Peterkofsky A. Buckheit R.W. Jr. Identification of novel human immunodeficiency virus type 1 inhibitory peptides based on the antimicrobial peptide database Antimicrob. Agents || [54]; doi:10.4172/2155-6113.S2-003; 54. Wang G. Buckheit K.W. Mishra B. Lushnikova T. Buckheit R.W. Jr. De Novo Design of Antiviral and Antibacterial Peptides with Varying Loop structures J. AIDS Clin. Res. 2011 S2:003 10.4172/2155-6113 ||| ref 9, 54 = [9]; PMID 18957441; doi:10.1093/nar/gkn823; 9. Wang G. Li X. Wang Z. The updated antimicrobial peptide database and its application in peptide design Nucleic Acids Res. 2009 37 D933 D937 10.1093/nar/gkn823 18957441 PMC2686604 || [54]; doi:10.4172/2155-6113.S2-003; 54. Wang G. Buckheit K.W. Mishra B. Lushnikova T. Buckheit R.W. Jr. De Novo Design of Antiviral and Antibacterial Peptides with Varying Loop structures J. AIDS Clin. Res. 2011 S2:003 10.4172/2155-6113; details: for MIC: peptide potency against E. coli K12
Text: Our initial attempt was a stepwise design based on the bioinformatics results from our database.

[9] = tested on: herpes simplex virus type-2 (HSV-2); design: method as in doi:10.4172/2155-6113.S2-003
Text: These GLRC peptides (Table 3) are made of only amino acids G, L, R, and C. […] O ...

[10] = peptide potency against HIV-1, database-guided designed peptides

| Substance | S. aureus USA300 (MIC, μM) [2] [µM] | activity against S. aureus USA300 (MRSA), in words [2] | activity against B. subtilis, in words [3] | activity against P. aeruginosa, in words [4] | activity against E. coli, in words [5] | EC50 [1, 10] [nM] | MIC [8] [µM] | further results |
| --- | --- | --- | --- | --- | --- | --- | --- | --- |
| Ascaphin-8 | 3.1 | effective | active | active | active |  |  | activity against HIV-1, in words [1]: effective; EC50 ([1]; read-out: HIV-1 (EC50)): 1200 nM; activity against S. aureus USA300 (MRSA), in words ([2]; listed as Aascaphin-8): active |
| FFGKVLKLIRKIF-NH2 [DASamP1] | 3.1 | active; also recorded: effective | not | not | not |  |  | activity against HIV-1, in words [1]: effective; EC50 ([1]; read-out: HIV-1 (EC50)): 630 nM; prevention of Staphylococcal biofilm formation [6]: able to prevent Staphylococcal biofilm formation |
| GCRRLCGRLGRRLCRLLCR (also: bicyclic or more (positions not given here)) [GLRC-4] |  |  |  |  |  | 30700 | 60 | Stability (% left) ([7]; stability to the action of chymotrypsin): 9.7 % left |
| GCRRLLGRLLRRLGRLLCR (disulfide 2-18 (inferred)) [GLRC-1] |  |  |  |  |  | > 43800 | 30 | Stability (% left) [7]: 20.8 % left |
| GLKKLLGKLLKKLGKLLLK [GLK-19, 19-residue peptide containing only G, L, and K] |  |  |  |  |  | > 47500 | 10 | activity against HIV-1, in words ([1]; GLK/GLR/GLRC designed peptides): not |
| GLRCRLGRLLRRLGRCLLR (disulfide 4-16 (inferred)) [GLRC-2] |  |  |  |  |  | 790 | 30 | activity against HIV-1, in words ([1]; GLK/GLR/GLRC designed peptides): most effective; Stability (% left) [7]: 63.3 % left; stability to the action of chymotrypsin, in words [7]: most stable; inhibitory effect on HSV-2 [9]: inhibitory effect |
| GLRRLCGRLGRRLCRLLLR (disulfide 6-14 (inferred)) [GLRC-3] |  |  |  |  |  | 2800 | 7.5 | Stability (% left) [7]: 1.4 % left |
| GLRRLLGRLLRRLGRLLLR [GLR-19, arginine analog of GLK-19] |  |  |  |  |  | 4400 | >120 | activity against HIV-1, in words ([1]; GLK/GLR/GLRC designed peptides): HIV-1 inhibitory; Stability (% left) [7]: 14.5 % left; activity against E. coli, in words ([8]; GLK/GLR designed peptides): lost activity |
| IKWKKLLRAAKRIL-NH2 [DASamP2, derivative of polybia-MPI, […]-amide] | 6.2 | active | active | active | active |  |  |  |
| Lycotoxin I: spider antimicrobial peptide (IWLTALKFLGKHAAKHLAKQQLSKL; UniProt P61507 1-25, looked up) | 3.1 | active | active | active | active |  |  |  |
| Maculatin 1.3 | 6.2 | active | active | not | not |  |  |  |
| Piscidin 1 | 3.1 | effective | active | active | active |  |  | activity against S. aureus USA300 (MRSA), in words ([2]; listed as piscidin 1): active |
| Ponericin L2 [reference compound] |  |  |  |  |  |  |  | EC50 ([1]; read-out: HIV-1 (EC50), database screening of 30 APD peptides): 1400 nM |
| drosocin [reference compound] |  |  |  |  |  |  |  | activity against HIV-1, in words [1]: did not show any activity |
